From patent US20240209011A1, “HETEROAROMATIC PHOSPHONIUM SALTS FOR TREATING CANCER” (FLORATEK PHARMA S.A., priority 2021, published 2024) come the findings set out here.

Structures are written as SMILES. Bounds are passed on as bounds.

Usually IC50 stands for the concentration needed to halve the response being measured. High values mean weaker potency in that assay, low ones greater potency in that assay.

Common to all, as to format: cell-based
One assay relates to ovarian cancer cell. The assay can be described thus: Activity against ovarian cancer cells. The following applies: ovarian cancer cell growth; Tables 18A-18C. As to the method: (§1) Antitumor activity of the compounds and doxorubicin as a positive control was assessed by using the CellTiter-Blue Cell Viability Assay (Promega, #G8082) or CellTiter-Glow® Luminescent Cell Viability assay (Promega #G7572) according to the manufacturer's instructions. The compounds were tested at 5 or 6 concentrations in half-log increments (highest concentration 30 μM or 100 μM) in duplicate or triplicate well conditions.
(§2) Tumor cells were grown at 37° C. in a humidified atmosphere with 5% CO2 in RPMI 1640 or DMEM medium, supplemented with 10% (v/v) fetal calf serum and 50 μg/ml gentamicin for up to 20 passages, and were passaged once or twice weekly. Cells were harvested using TrypLE or PBS buffer containing 1 mM EDTA, and the percentage of viable cells is determined using a CASY Model TI cell counter (OMNI Life Science). Cells were harvested from exponential phase cultures, counted and plated in 96 well flat-bottom microtiter plates at a cell density depending on the cell line's growth rate (4,000-20,000 cells/well depending on the cell line's growth rate, up to 60,000 for hematological cancer cell lines) in RPMI 1640 or DMEM medium supplemented with 10% (v/v) fetal calf serum and 50 μg/ml gentamicin (140 μl/well). Cultures were incubated at 37° C. and 5% CO2 in a humidified atmosphere. After 24 h, 10 μl of test compounds or control medium were added, and left on the cells for another 72 h. Compounds were serially diluted in DMSO, transferred in cell culture medium, and added to the assay plates. The DMSO concentration was kept constant at <0.3% v/v across the assay plate. Viability of cells was quantified by the CellTiter-Blue® cell viability assay (Promega G8081) or CellTiter-Glow® Luminescent Cell Viability assay (Promega #G7572). Fluorescence (FU) was measured by using the EnSpire® multimode plate reader (Perkin Elmer) (excitation X=570 nm, emission λ=600 nm). Luminescence was measured with a microplate luminometer (Promega or PerkinElmer).
(§3) Sigmoidal concentration-response curves were fitted to the data points (test-versus-control, T/C values) obtained for each tumor model using 4 parameter non-linear curve fit (Charles River DRS Datawarehouse Software) or with GraphPad prism 5.02 software. IC50 values are reported as absolute IC50 values, being the concentration of test compound at the intersection of the concentration-response curves with T/C=50% Cell lines tested are presented in Table 1.

Another assay concerns LNCaP. The assay can be described thus: Cell viability assay (CellTiter-Blue/CellTiter-Glow). The settings on record: Homo sapiens; prostate carcinoma cell line LNCaP; absolute IC50; 72 h. As to the method:
as §1, §2, §3
A general note: The colour change of resazurin is a common sign of viable cells or microbes.

For the next assay, the system named is HL-60. Described as above. The following applies: Homo sapiens; leukaemia cell line HL-60; absolute IC50; 72 h. As to the method: as §1, §2, §3
The next assay has as its system PC-3. The assay is described as above. The following applies: Homo sapiens; prostate carcinoma cell line PC-3; absolute IC50; 72 h. Here is the method: as §1, §2, §3
The next assay has as its system HCT-116. The description is as above. The following applies: Homo sapiens; colon carcinoma cell line HCT-116; absolute IC50; 72 h. As to the method:
as §1, §2, §3

Another assay deals with MDA-MB-468. The description is as above. The following applies: Homo sapiens; breast carcinoma cell line MDA-MB-468; absolute IC50; 72 h. As to the method: as §1, §2, §3
The test system of the next assay is LoVo. Described as above. The settings on record: Homo sapiens; colon carcinoma cell line LoVo; absolute IC50; 72 h. As to the method:
as §1, §2, §3

The next assay concerns 22Rv1. The description is as above. The settings on record: Homo sapiens; prostate carcinoma cell line 22Rv1; absolute IC50; 72 h. Here is the method:
as §1, §2, §3

In the next assay the test system is MCF-7. The description is as above. The settings on record: Homo sapiens, MCF7; breast carcinoma cell line MCF-7; absolute IC50; 72 h. Here is the method: as §1, §2, §3
A further assay concerns leukaemia cell. In words: Activity against leukaemia cells. The settings on record: leukaemia cell growth; Tables 13A and 13B. Here is the method: as §1, §2, §3
Another assay has as its system pancreatic cancer cell. In words: Activity against pancreatic cancer cells. The following applies: pancreatic cancer cell growth; Table 19A. As to the method: as §1, §2, §3
For another assay, the system named is breast cancer cell. In words: Activity against breast cancer cells. The settings on record: breast cancer cell growth; Tables 5A and B. Here is the method:
as §1, §2, §3

For the next assay, the system named is prostate cancer cell. In words: Activity against prostate cancer cells. The settings on record: prostate cancer cell growth; text summary of Table 21. As to the method: as §1, §2, §3
A further assay deals with colon cancer cell. In words: Activity against colon cancer cells. The following applies: colon cancer cell growth; summary of Tables 7A-7D. Here is the method:
as §1, §2, §3

Another assay deals with brain cancer cell. In words: Activity against brain cancer cells. The settings on record: brain cancer cell growth; Tables 4A-4D. As to the method: as §1, §2, §3
A further assay has as its system breast PDX. The assay can be described thus: Activity against breast PDX. The settings on record: growth of breast PDX; summary of Table 6. As to the method:
(§4) PDX-derived cell cultures were obtained from tumors explanted from mice and isolated by mechanical and enzymatic dissociation. […] Cells were harvested and seeded in 96-wells plates at a density of 1.25 to 5×10^3 cells/well for cytotoxicity assays. Cells were incubated 48 h at 37° C. prior to addition of test molecules and vehicle (DMSO, 0.1%) at desired final concentrations. Cell viability was assessed before drugs' addition (To) and 5 days after test molecules addition by measuring ATP cell content using CellTiter-Glo® Luminescent Cell Viability Assay (Promega) according to the manufacturer's instructions. Luciferase activity was measured on a luminometer (PerkinElmer® EnVision™). Each concentration of compounds was tested in triplicate.
(§5) Viability was calculated as a percentage of ATP value compared to vehicle treated controls.
(§6) For PDX primary cell cultures, the tumour tissue was washed with PBS containing antibiotic-antimycotic and non-tumour tissue and necrotic tumour tissues were separated. The tumour tissue was transferred to a new dish and cut into 1-2 mm^3 fragments, resuspended in RPMI-1640 medium and centrifuged at 1,200 rpm for 6 min at room temperature. The pelleted material was resuspended with 15 mL of Tumour Cell Digestion Solution and incubated at 37° C. for 1 hour with agitation. Following further addition of media, centrifugation and passage through a […] cell strainer, the homogenous cell mixture was layered onto 15 mL of Ficoll-Paque PLUS in a 50 mL conical tube and centrifuged for 15 min at 1,600 rpm. The interface cells were collected, washed with media, separated by centrifugation at 1,200 rpm. The cell pellet was resuspended in serum free media supplemented with growth factors. 10,000 cells/wells were plated in a 96 well plate and incubated at 37° C., 5% CO2, 95% air and 100% relative humidity overnight. The cytotoxicity assay was conducted as above. IC50 values represent absolute IC50.

The subject of a further assay is lung PDX. In words: Activity against lung PDX. The settings on record: lung PDX growth; Table 16. As to the method:
as §4, §5, §6

In the case of `CC(C)NC(=O)Oc1ccc2c(=O)cc(-c3ccc(CCCC[P+](c4ccccc4)(c4ccccc4)c4ccccc4)cc3)oc2c1O` [SND127, 4-[4-[7-(Isopropylcarbamoyloxy)-8-hydroxy-4-oxo-chromen-2-yl]phenyl]butyltriphenylphosphonium bromide], the IC50 with ovarian cancer cell was below 20 µM; in the assay on LNCaP, 2 µM; in the assay on HL-60 it was 1.54 µM; in the assay with PC-3, 5.5 µM; in the assay with HCT-116 it was 6.2 µM; with MDA-MB-468, 0.6 µM. In addition, the half-maximal inhibitory concentration (IC50) is 8.4 µM in the assay with LoVo; 3.3 µM in the assay on 22Rv1; 6.7 µM in the assay on MCF-7; below 20 µM in the assay with leukaemia cell; below 20 µM in the assay with pancreatic cancer cell; below 20 µM in the assay with breast cancer cell. The values for the IC50 with prostate cancer cell, in the assay with colon cancer cell and in the assay on brain cancer cell were below 10 µM, below 20 µM and below 20 µM, respectively.

For the molecule `CCNC(=O)Oc1ccc2c(=O)cc(-c3ccc(CCCC[P+](c4ccccc4)(c4ccccc4)c4ccccc4)cc3)oc2c1OC(=O)NCC.[Br-]` [SND124, 4-[4-[7,8-Bis(ethylcarbamoyloxy)-4-oxo-chromen-2-yl]phenyl]-butyltriphenylphosphonium bromide], the IC50 with breast PDX is below 20 µM; with ovarian cancer cell it was below 20 µM; in the assay with LNCaP it was 4 µM; in the assay with HL-60, 0.29 µM; in the assay with PC-3, 6.3 µM; with HCT-116 it was 4.2 µM. The concentration for half-maximal inhibition (IC50) with MDA-MB-468 is 0.5 µM; with LoVo it was 21.4 µM; in the assay with 22Rv1, 3.4 µM; in the assay on MCF-7, 2 µM; with leukaemia cell, below 20 µM; with pancreatic cancer cell it was below 20 µM. Further, the IC50 in the assay with breast cancer cell is below 20 µM; with lung PDX, below 20 µM; in the assay on prostate cancer cell, below 10 µM; in the assay on colon cancer cell it was below 20 µM; in the assay on brain cancer cell it was below 20 µM.

With `O=c1cc(-c2ccc(CCCC[P+](c3ccccc3)(c3ccccc3)c3ccccc3)cc2)oc2c(O)c(O)ccc12` [SND118, 4-[4-(7,8-dihydroxy-4-oxo-chromen-2-yl)phenyl]butyltriphenyl-phosphonium bromide], the half-maximal inhibitory concentration (IC50) was below 20 µM in the assay with ovarian cancer cell; 1.87 µM in the assay with LNCaP; 0.29 µM with HL-60; 5.3 µM with PC-3; 1.53 µM with HCT-116; 0.32 µM in the assay with MDA-MB-468. The IC50 was 7.9 µM in the assay with LoVo; 5.1 µM with 22Rv1; 0.86 µM in the assay with MCF-7; below 20 µM in the assay on leukaemia cell; below 20 µM with pancreatic cancer cell; below 20 µM in the assay with breast cancer cell. Also, the IC50 in the assay on prostate cancer cell is below 10 µM; with colon cancer cell it was below 20 µM; with brain cancer cell, below 20 µM.

As for `CCNC(=O)Oc1ccc2c(=O)cc(-c3ccc(CCCC[P+](c4ccccc4)(c4ccccc4)c4ccccc4)cc3)oc2c1O.[Br-]` [SND126A, 4-[4-[7-(Ethylcarbamoyloxy)-8-hydroxy-4-oxo-chromen-2-yl]phenyl]butyltriphenylphosphonium bromide], the IC50 is below 20 µM in the assay on breast PDX; below 20 µM in the assay on ovarian cancer cell; 1.95 µM with LNCaP; 0.58 µM in the assay on HL-60; 2.91 µM in the assay on PC-3; 3.56 µM with HCT-116. Also, the IC50 is 0.56 µM in the assay on MDA-MB-468; 2.94 µM in the assay on LoVo; 2.39 µM in the assay on 22Rv1; 12.9 µM in the assay on MCF-7; below 20 µM with leukaemia cell; below 20 µM in the assay on pancreatic cancer cell. The half-inhibitory concentration (IC50) is below 20 µM with breast cancer cell; below 20 µM in the assay with lung PDX; below 10 µM in the assay on prostate cancer cell; below 20 µM in the assay on colon cancer cell; below 20 µM in the assay with brain cancer cell.

As for `O=c1cc(-c2ccc(CCCC[P+](c3ccccc3)(c3ccccc3)c3ccccc3)cc2)oc2c3c(ccc12)OCO3.[Br-]` [SND123, 4-[4-(6-oxo-[1,3]dioxolo[4,5-h]chromen-8-yl)phenyl]butyl-triphenylphosphonium bromide], the IC50 was below 20 µM in the assay with breast PDX; below 20 µM with ovarian cancer cell; 1.37 µM in the assay with LNCaP; 1.08 µM in the assay with HL-60; 1.89 µM with PC-3; 2.25 µM with HCT-116. Besides, the half-inhibitory concentration (IC50) in the assay with MDA-MB-468 was 0.36 µM; in the assay on LoVo, 1.7 µM; in the assay with 22Rv1, 1.49 µM; in the assay with MCF-7 it was 6.87 µM; in the assay on leukaemia cell, below 20 µM; in the assay on pancreatic cancer cell, below 20 µM. The IC50 in the assay on breast cancer cell was below 20 µM; in the assay with lung PDX, below 20 µM; in the assay on prostate cancer cell, below 10 µM; in the assay on colon cancer cell, below 20 µM; with brain cancer cell, below 20 µM.

As to `COc1c(O)ccc2c(=O)cc(-c3ccc(CCCC[P+](c4ccccc4)(c4ccccc4)c4ccccc4)cc3)oc12.[Br-]` [SND140, (4-(4-(7-hydroxy-8-methoxy-4-oxo-4H-chromen-2-yl)phenyl)butyl)triphenylphosphonium bromide], the IC50 with breast PDX is below 20 µM; with ovarian cancer cell it was below 20 µM; in the assay with LNCaP, 6.23 µM; with HL-60 it was 0.9 µM; with PC-3 it was 8.31 µM; in the assay with HCT-116, 10.6 µM. Further, the IC50 with MDA-MB-468 was 2.8 µM; with LoVo, 16.3 µM; in the assay with 22Rv1, 9 µM; in the assay with MCF-7, 4.3 µM; in the assay on leukaemia cell it was below 20 µM; with pancreatic cancer cell it was below 20 µM. Also, the half-inhibitory concentration (IC50) is below 20 µM in the assay with breast cancer cell; below 20 µM in the assay on lung PDX; below 10 µM with prostate cancer cell; below 20 µM in the assay on colon cancer cell; below 20 µM in the assay on brain cancer cell.
